Structures can show the parent of a compound that is named as a salt. Where two headings read alike, the source gives them in different places.
Tests used:
children with HeFH [1] = test: Dirisamer et al.: low-dose simvastatin in children with HeFH; format: in vivo, human
Procedure: If the range of LDL-C of 150-170 mg/dl was not reached within the first 8 weeks, the daily dosage was increased stepwise up to 20 mg. The cut-off level for LDL-C<170 mg/dl (range 150-170 mg/dl) was determined according to the high mean concentrations of LDL-C of the study population.

[2] = Simvastatin solubility screening, visual observation; format: physicochemical; details: for Visual Appearance: 23° C.
Procedure: The study was performed by visual observation of the samples at various time points followed by chemical testing of the centrifuged supernatant. Ten vehicles chosen for the solubility screen are referenced in Table 2 below. One (1 g) of each vehicle was dispensed into an Eppendorf tube. […] Samples not visually soluble, after about 21 hours, were heated to 60° C. while being mixed for 1 hour. Samples were allowed to reach room temperature, and visual observations were recorded. All samples were centrifuged for 10 minutes at 10,000 RPM.

[3] = test system: children younger than 17 years of age with hyperlipidemia; details: mean dosage 16 mg once daily, cited from earlier work
children with HeFH [4] = details: cited from earlier work
pediatric HeFH patients = details: cited from earlier work
[5] = cited from earlier work
[6] = pH of 7.0; cited from earlier work
[7] = adults; estimate for the five statins together; cited from earlier work
[8] = test system: testicular endocrine function; details: dogs, very high doses; cited from earlier work
[9] = test system: adrenal and gonadal steroidogenesis; details: humans, up to 80 mg/day, basal conditions; cited from earlier work
children and adolescents = details: cited from earlier work
[10] = test system: adrenocortical and testicular steroidogenesis; details: males age 18-50 years, long-term therapy, cited from earlier work
[11] = test system: HeFH children and adolescents; details: 5 mg and 10 mg pravastatin; cited from earlier work

## CCC(C)(C)C(=O)O[C@@H]1C[C@H](C)C=C2C=C[C@@H](C)[C@@H](CC[C@@H]3C[C@H](O)CC(=O)O3)[C@@H]21 (relative stereo) [Simvastatin, butanoic acid, 2,2-dimethyl-,1,2,3,7,8,8a-hexahydro-3,7-dimethyl-8-[2-(tetrahydro-4-hydroxy-6-oxo-2H-pyran-2-yl)-ethyl]-1-naphthalenyl ester, [1S-[1α,3α,7β,8β(2S*,4S*),-8aβ]]]
Children with HeFH [1]; 5 mg and 10 mg simvastatin period
  higher LDL-C reduction compared with other statins tested in young HeFH patients: ~10%
Children with HeFH [1]; in vivo
  share of the mean LDL-C reduction of the highest dose (20 mg/day) reached by the lowest dose (5 mg/day): more than 70%
[2]; 2.5 mg in 1 g 5% SLS in Water, 30 Min to ~21 Hrs
  Visual Appearance: Clear colorless liquid w/ air bubbles
[2]; 2.5 mg in 1 g Captex 500 P, 30 Min to ~21 Hrs
  Visual Appearance: Clear colorless liquid
[2]; 2.5 mg in 1 g E. Pure Water
  Visual Appearance after Application of Heat (60° C.) for 1 Hour and Cooled to Room Temperature: Hazy liquid w/ white powder and air bubbles
[2]; 2.5 mg in 1 g E. Pure Water, 30 Min to ~21 Hrs
  Visual Appearance: Cloudy liquid w/ white powder
[2]; 2.5 mg in 1 g Glycerine
  Visual Appearance after Application of Heat (60° C.) for 1 Hour and Cooled to Room Temperature: Slightly hazy liquid w/ some white powder
[2]; 2.5 mg in 1 g Glycerine, Initial to ~21 Hrs
  Visual Appearance: Stiff clear, colorless liquid w/ white powder
[2]; 2.5 mg in 1 g Labrafil M 2125 CS, merged cell, Initial to about 2 Hrs
  Visual Appearance: Yellow liquid w/ white powder
[2]; 2.5 mg in 1 g Labrasol, 30 Min to ~21 Hrs
  Visual Appearance: Pale yellow liquid
[2]; 2.5 mg in 1 g PEG 400, 30 Min to ~21 Hrs
  Visual Appearance: Clear colorless liquid
[2]; 2.5 mg in 1 g Polysorbate 80
  Visual Appearance after Application of Heat (60° C.) for 1 Hour and Cooled to Room Temperature: Clear yellow liquid w/ some white residue
[2]; 2.5 mg in 1 g Polysorbate 80, Initial to ~21 Hrs
  Visual Appearance: Yellow liquid w/ white powder
[2]; 2.5 mg in 1 g Propylene Glycol, 30 Min to ~21 Hrs
  Visual Appearance: Clear colorless liquid
[3]; in 1 patient
  fall of circulating LDL-C at week 104: 15-20%
[3]; in 7 patients
  fall of circulating LDL-C at week 104: 40-60%
[3]; in 8 patients
  fall of circulating LDL-C at week 104: 20-40%
Children with HeFH [4]; 5 mg simvastatin daily, nine patients started with 5 mg
  patients reaching the recommended therapeutic level (LDL-C<170 mg/dl) within the first period: four
Children with HeFH [4]; 5 mg simvastatin period
  percentage decrease in LDL-C concentration: 25%
  percentage decrease in total cholesterol: 19%
Children with HeFH [4]; 10 mg simvastatin daily, 11 patients started with 10 mg
  patients reaching the recommended therapeutic level within the first period: Six
Children with HeFH [4]; 10 mg simvastatin period
  percentage decrease in LDL-C concentration: 30%
  percentage decrease in total cholesterol: 26%
Children with HeFH [4]; 20 mg simvastatin period
  percentage decrease in LDL-C concentration: 36%
  percentage decrease in total cholesterol: 29%
Children with HeFH [4]; 5, 10 and 20 mg dosage periods
  side effects that could be related to simvastatin: few and equally distributed among the three dosage periods
Children with HeFH [4]; group of 20 girls and boys
  subjects with abnormal levels of routine safety parameters (CK, ALAT, GGT): three
Pediatric HeFH patients; at 24 weeks
  change in total-C, LDL-C and ApoB compared with placebo: significant (P<0.001) reductions
Pediatric HeFH patients; only significant relative to placebo at week 24 (P<0.05)
  change in HDL-C and ApoA1: increased for all weeks
Pediatric HeFH patients; simvastatin 40 mg
  results from the extension at 48 weeks: comparable to those observed in the base study
Pediatric HeFH patients; weeks 8, 16, and 48
  change in triglycerides: Significant reductions

## CC(C)c1nc(N(C)S(C)(=O)=O)nc(-c2ccc(F)cc2)c1/C=C/C(O)C[C@@H](O)CC(=O)O (stereo in doubt) [Rosuvastatin calcium, bis[(E)-7-[4-(4-fluorophenyl)-6-isopropyl-2-[methyl(methylsulfonyl)amino]pyrimidin-5-yl](3R,5S)-3,5-dihydroxyhept-6-enoic acid] calcium salt]
[5]; in ethanol
  solubility: slightly soluble
[5]; in water and methanol
  solubility: sparingly soluble
[6]
  partition coefficient (octanol/water): 0.13

## CC(C)c1c(C(=O)Nc2ccccc2)c(-c2ccccc2)c(-c2ccc(F)cc2)n1CC[C@@H](O)C[C@@H](O)CC(=O)O [Atorvastatin, (3R, 5R)-7-[2-(4-fluorophenyl)-3-phenyl-4-(phenylcarbamoyl)-5-(propan-2-yl)-1H-pyrrol-1-yl]-3,5-dihydroxyheptanoic acid]
[7]
  occurrence of rhabdomyolysis: 3 per 100 000 person-years

## COCc1c(C(C)C)nc(C(C)C)c(/C=C/[C@@H](O)C[C@@H](O)CC(=O)O)c1-c1ccc(F)cc1 [Cerivastatin sodium]
[5]; in acetone
  solubility: very slightly soluble
[5]; in water, methanol, and ethanol
  solubility: soluble

## CC[C@H](C)C(=O)O[C@H]1C[C@@H](C)C=C2C=C[C@H](C)[C@H](CC[C@@H]3C[C@@H](O)CC(=O)O3)[C@H]21 [Lovastatin, (1S,3R,7S,8S,8aR)-8-{2-[(2R,4R)-4-hydroxy-6-oxooxan-2-yl]ethyl}-3,7-dimethyl-1,2,3,7,8,8a-hexahydronaphthalen-1-yl (2S)-2-methylbutanoate]
[8]
  effect on testicular endocrine function: reduction in testicular endocrine function
[9]
  effect on adrenal and gonadal steroidogenesis: no effect
[7]
  occurrence of rhabdomyolysis: 3 per 100 000 person-years
Children and adolescents; 10 mg lovastatin
  LDL-C reduction: 21%
Children and adolescents; 20 mg lovastatin
  LDL-C reduction: 24%
Children and adolescents; in vivo
  share of the mean LDL-C reduction of the highest dose of 40 reached by the lowest dose (10 mg/day): more than 50%

## CC[C@H](C)C(=O)O[C@H]1C[C@H](O)C=C2C=C[C@H](C)[C@H](CC[C@@H](O)C[C@@H](O)CC(=O)O)[C@H]21 [Pravastatin, (bR,dR,1S,2S,6S,8S,8aR)-1,2,6,7,8,8a-Hexahydro-b,d,6-trihydroxy-2-methyl-8-[(2S)-2-methyl-1-oxobutoxy]-1-naphthaleneheptanoic acid monosodium salt]
[10]; maximum stimulation
  interference with adrenal and testicular steroidogenesis: did not interfere
[10]
  serum testosterone levels: remained unchanged
[7]
  occurrence of rhabdomyolysis: 3 per 100 000 person-years
[11]
  average decrease in LDL-C concentration: 23%

## [R.,S.-(E)]-(±)-7-[3-(4-fluorophenyl)-1-(1-methylethyl)-1H-indol-2-yl]-3,5-dihydroxy-6-heptenoic acid, monosodium salt [Fluvastatin]
[7]
  occurrence of rhabdomyolysis: 3 per 100 000 person-years
